The nature of data set [1]: Retention time of compound by LC-MS analysis.
The target in data set [2] is T1, Matrix metalloproteinase-14 (Homo sapiens, UniProt P50281). Kind of data set: Prodrug activation assessed as recombinant human MMP14-mediated Cbz-Glu-Pro-Leu-Gly metabolite at 10 uM after 12 hrs by LC-MS analysis. The format is ADME.
Data set [3] concerns the target T2, Matrix metalloproteinase-9 (Homo sapiens, UniProt P14780). The data set can be described thus: Prodrug activation assessed as recombinant human MMP9-mediated Ser(O-benzyl)-Tyr-Leu-doxorubicin formation at 10 uM after 12 hrs by LC-MS analysis.
For data set [4], the target named is T2, Matrix metalloproteinase-9. Kind of data set: Prodrug activation assessed as recombinant human MMP9-mediated Cbz-Glu-Pro-Leu-Gly formation at 10 uM after 12 hrs by LC-MS analysis.
The target in data set [5] is T3, 72 kDa type IV collagenase (Homo sapiens, UniProt P08253). The data set can be described thus: Prodrug activation assessed as recombinant human MMP2-mediated Cbz-Glu-Pro-Leu-Gly formation at 10 uM after 12 hrs by LC-MS analysis.
T3 sequence (P08253 whole entry): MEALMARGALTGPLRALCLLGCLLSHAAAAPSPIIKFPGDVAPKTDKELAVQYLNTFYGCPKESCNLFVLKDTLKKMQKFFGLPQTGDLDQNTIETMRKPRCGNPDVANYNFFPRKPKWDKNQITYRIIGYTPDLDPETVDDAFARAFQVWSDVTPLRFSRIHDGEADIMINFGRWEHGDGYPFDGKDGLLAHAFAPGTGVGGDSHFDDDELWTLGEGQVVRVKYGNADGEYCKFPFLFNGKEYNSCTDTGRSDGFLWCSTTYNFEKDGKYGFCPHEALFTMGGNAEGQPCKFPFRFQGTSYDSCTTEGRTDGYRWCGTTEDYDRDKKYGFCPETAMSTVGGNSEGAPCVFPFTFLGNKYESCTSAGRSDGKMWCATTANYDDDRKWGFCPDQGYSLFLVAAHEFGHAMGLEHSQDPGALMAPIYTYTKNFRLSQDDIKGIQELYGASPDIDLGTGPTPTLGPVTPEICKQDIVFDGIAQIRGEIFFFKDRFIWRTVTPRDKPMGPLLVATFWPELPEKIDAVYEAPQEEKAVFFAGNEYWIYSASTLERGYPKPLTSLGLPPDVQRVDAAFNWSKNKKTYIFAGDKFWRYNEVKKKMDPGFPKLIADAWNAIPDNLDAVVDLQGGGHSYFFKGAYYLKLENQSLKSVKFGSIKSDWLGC
Data set [6] concerns the target T3, 72 kDa type IV collagenase. Kind of data set: Prodrug activation assessed as recombinant human MMP2-mediated Ser(O-benzyl)-Tyr-Leu-doxorubicin formation at 10 uM after 12 hrs by LC-MS analysis.
Data set [7] has as its target T1, Matrix metalloproteinase-14. The data set can be described thus: Prodrug activation assessed as recombinant human MMP14-mediated Ser(O-benzyl)-Tyr-Leu-doxorubicin formation at 10 uM after 12 hrs by LC-MS analysis.
Data set [8] has as its system U-87 MG. The data set can be described thus: Cytotoxicity against human U87MG cells treated with MJ02 assessed as reduction in cell survival after 96 hrs in presence of MMP inhibitor GM6001 by MTT assay. The format is functional, cell-based, U-87MG ATCC. (In general: Formazan colour is commonly taken as a measure of viable cells.)
For data set [9], the target named is T3, 72 kDa type IV collagenase. Kind of data set: Prodrug activation assessed as recombinant human MMP2-mediated Leu-doxorubicin formation at 10 uM after 12 hrs by LC-MS analysis.
The subject of data set [10] is Kidney. Kind of data set: Prodrug activation in Balb/c immunodeficient nude mouse xenografted with human HT1080 cells assessed as half life for prodrug in kidney after 60 mins by LC-MS analysis. The format is tissue-based. The note with it: 1 h. In general terms: Xenograft models place foreign cells or tissue in a host animal.
In data set [11] the target is T1, Matrix metalloproteinase-14. The data set can be described thus: Prodrug activation assessed as recombinant human MMP14-mediated compound cleavage at 10 uM after 12 hrs by LC-MS analysis.
Data set [12] in a line: Retention time of compound by RP-HPLC analysis.
Data set [13] concerns U-87 MG. The data set can be described thus: Cytotoxicity against human U87MG cells assessed as reduction in cell survival after 96 hrs by MTT assay. The format is functional, cell-based, U-87MG ATCC.
Data set [14] deals with T2, Matrix metalloproteinase-9. Kind of data set: Prodrug activation assessed as recombinant human MMP9-mediated compound cleavage at 10 uM after 12 hrs by LC-MS analysis.
The nature of data set [15]: Prodrug activation in Balb/c immunodeficient nude mouse xenografted with human HT1080 cells assessed as half life for prodrug in tumor homogenates after 60 mins by LC-MS analysis. As to conditions: tissue homogenate, 1 h. The format is tissue-based, Neoplasm.
Data set [16] deals with Plasma. The data set can be described thus: Prodrug activation in Balb/c immunodeficient nude mouse xenografted with human HT1080 cells assessed as half life for prodrug in plasma after 60 mins by LC-MS analysis. The note with it: 1 h. The format is cell-free.
The target in data set [17] is T3, 72 kDa type IV collagenase. The data set can be described thus: Prodrug activation assessed as recombinant human MMP2-mediated Cbz-Gly-Pro-Ile-Gln-Glu-Hof formation at 10 uM after 12 hrs by LC-MS analysis.
The test system of data set [18] is Liver. The data set can be described thus: Prodrug activation in Balb/c immunodeficient nude mouse xenografted with human HT1080 cells assessed as half life for prodrug in liver after 60 mins by LC-MS analysis. The format is tissue-based. As to conditions: 1 h.
Data set [19] relates to U-87 MG. Kind of data set: Cytotoxicity against human U87MG cells treated with MJ02 assessed as reduction in cell survival after 96 hrs by MTT assay. The format is functional, cell-based, U-87MG ATCC.

Where a SMILES comes first, the peptide text is derived from it. [ ]: non-standard residue; d: D form. The star is where a group is joined. ξ: configuration not given here. X1 = COc1cccc2c1C(=O)c1c(O)c3c(c(O)c1C2=O)C[C@](O)(C(=O)CO)C[C@H]3O[C@@H]1C[C@@H](N*)[C@H](O)[C@@H](C)O1; X2 = COc1cccc2c1C(=O)c1c(O)c3c(c(O)c1C2=O)C[C@@](O)(C(=O)CO)C[C@@H]3O[C@H]1C[C@H](N*)[C@@H](O)[C@H](C)O1; Dnp = O=[N+]([O-])c1ccc(*)c([N+](=O)[O-])c1; ξhPhe = NC(CCc1ccccc1)C(=O)O; ξCha = NC(CC1CCCCC1)C(=O)O; Cbz = O=C(OCc1ccccc1)*; Bn = c1ccc(C*)cc1

T2 sequence (P14780 whole entry): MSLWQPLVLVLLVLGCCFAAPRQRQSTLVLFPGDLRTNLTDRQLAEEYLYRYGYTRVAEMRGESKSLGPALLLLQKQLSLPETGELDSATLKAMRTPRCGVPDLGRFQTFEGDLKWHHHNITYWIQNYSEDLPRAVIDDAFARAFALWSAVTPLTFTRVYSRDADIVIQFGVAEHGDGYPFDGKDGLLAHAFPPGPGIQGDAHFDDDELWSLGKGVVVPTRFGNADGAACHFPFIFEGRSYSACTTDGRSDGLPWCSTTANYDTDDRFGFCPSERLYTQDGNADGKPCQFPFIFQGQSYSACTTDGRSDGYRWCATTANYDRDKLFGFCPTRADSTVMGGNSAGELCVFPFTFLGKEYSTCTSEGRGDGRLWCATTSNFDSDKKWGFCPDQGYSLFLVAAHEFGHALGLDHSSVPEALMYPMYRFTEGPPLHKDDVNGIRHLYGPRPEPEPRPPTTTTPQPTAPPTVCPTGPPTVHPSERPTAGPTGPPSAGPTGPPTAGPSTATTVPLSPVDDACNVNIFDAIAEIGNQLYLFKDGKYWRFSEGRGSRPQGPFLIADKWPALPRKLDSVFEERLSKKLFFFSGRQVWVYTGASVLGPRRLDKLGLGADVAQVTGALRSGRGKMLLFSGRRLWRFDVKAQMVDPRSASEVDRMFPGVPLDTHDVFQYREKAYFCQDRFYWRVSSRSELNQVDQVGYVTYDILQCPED

Turning to `CNc1ccccc1C(=O)NCCCC[C@H](NC(=O)[C@H](C)NC(=O)[C@H](Cc1c[nH]cn1)NC(=O)[C@H](N)CSC)C(N)=O`, in data set [1], the Retention time was found to be 2.47 min.
Consider `COc1cccc2c1C(=O)c1c(O)c3c(c(O)c1C2=O)C[C@@](O)(C(=O)CO)C[C@@H]3O[C@H]1C[C@H](NC(=O)[C@H](CC(C)C)NC(=O)[C@H](Cc2ccc(O)cc2)NC(=O)[C@@H](N)COCc2ccccc2)[C@@H](O)[C@H](C)O1`, for which, in data set [1], the Retention time was found to be 3.23 min.
The same measure, in the same setting: the value for `CC(C)C[C@H](NC(=O)[C@@H]1CCCN1C(=O)[C@H](CCC(=O)O)NC(=O)OCc1ccccc1)C(=O)NCC(=O)O` (Cbz-EPLG-OH) was 2.87 min.
For `COc1cccc2c1C(=O)c1c(O)c3c(c(O)c1C2=O)C[C@@](O)(C(=O)CO)C[C@@H]3O[C@H]1C[C@H](NC(=O)[C@H](CC(C)C)NC(=O)[C@H](Cc2ccc(O)cc2)NC(=O)[C@H](COCc2ccccc2)NC(=O)CNC(=O)[C@H](CC(C)C)NC(=O)[C@@H]2CCCN2C(=O)[C@H](CCC(=O)O)NC(=O)OCc2ccccc2)[C@@H](O)[C@H](C)O1` (Cbz-EPLGS(Bn)YL-X2), the Drug metabolism entry in [2], in data set [3], in [4], in [5], in data set [6] and in data set [7] was “Metabolite_Detected” throughout. Further, the Retention time in data set [1] worked out at 3.63 min.
In data set [1], `CC[C@H](C)[C@H](NC(=O)[C@@H]1CCCN1C(=O)CNC(=O)OCc1ccccc1)C(=O)N[C@@H](CCC(N)=O)C(=O)N[C@@H](CCC(=O)O)C(=O)NC(CCc1ccccc1)C(=O)O` (stereo partly specified) (Cbz-GPIQE[ξhPhe]-OH) had a Retention time of 2.83 min.
As usually defined, the IC50 is the midpoint of a concentration-inhibition curve. Take `CC[C@H](C)[C@H](NC(=O)[C@@H]1CCCN1C(=O)CNC(=O)OCc1ccccc1)C(=O)N[C@@H](CCC(N)=O)C(=O)N[C@@H](CCC(=O)O)C(=O)NC(CCc1ccccc1)C(=O)N[C@@H](CC(C)C)C(=O)N[C@@H]1C[C@@H](O[C@@H]2C[C@@](O)(C(=O)CO)Cc3c(O)c4c(c(O)c32)C(=O)c2c(OC)cccc2C4=O)O[C@H](C)[C@H]1O` (stereo partly drawn) (Cbz-GPIQE[ξhPhe]L-X1): the figures for the half-maximal inhibitory concentration (IC50) in [8] and in [13] were over 100 µM and 5000 nM, respectively. Also, the Drug metabolism result is listed as “Metabolite_Detected” in data set [9], “Metabolite_Notdetected” in data set [11], “Metabolite_Notdetected” in data set [14] and “Metabolite_Detected” in [17]. Also, the t1/2 result in data set [10] is on record as “>= 38.1 min”; in [15] it was “>= 8.8 min”; in data set [16] it was over 90 min; in [18], “>= 17 min”. Further, the Retention time in data set [12] is 3.58 min.
Turning to `O=C(O)CNC(=O)C(CC1CCCCC1)NC(=O)[C@@H]1CCCN1c1ccc([N+](=O)[O-])cc1[N+](=O)[O-]` (stereo partly drawn) (Dnp-Pro-[ξCha]-Gly-OH), in data set [1], the Retention time was found to be 2.3 min.
For `COc1cccc2c1C(=O)c1c(O)c3c(c(O)c1C2=O)C[C@@](O)(C(=O)CO)C[C@@H]3O[C@H]1C[C@H](N)[C@H](O)[C@H](C)O1` [DOXORUBICIN], the half-maximal inhibitory concentration (IC50) in data set [13] amounted to 300 nM.
For the molecule `COc1cccc2c1C(=O)c1c(O)c3c(c(O)c1C2=O)C[C@@](O)(C(=O)CO)C[C@@H]3O[C@H]1C[C@H](NC(=O)[C@@H](N)CC(C)C)[C@H](O)[C@H](C)O1` [LEURUBICIN], the IC50 in data set [19] is 600 nM. Further, the Retention time in [1] was found to be 2.08 min.

The values are drawn from ChEMBL document CHEMBL4014318, “Rationalized Computer-Aided Design of Matrix-Metalloprotease-Selective Prodrugs” (J Med Chem, 2017).
